Eight compounds from the supplement of paper PMC5579334 can be followed below.

The subject of assay [1] is HSC1. Nature of the assay: relative IC50 (inflection point of fitted dose-response curve, CellTox-Green cytotoxicity, 72 h; top asymptote may be below 50%); higher = less potent. A digest of the protocol: (§1)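 MPNST cell lines and primary human Schwann cells were grown for 72 h at 37 °C in 384-well plates containing five 10-fold compound dilutions. CellTox-Green, added before seeding at a final 1:1000 dilution, gave fluorescence from DNA released by disrupted cells, and signals were scaled to vehicle and positive-control wells. Curves were fitted with a four-parameter logistic model. Drug sensitivity score and relative IC50 come from these fits, with IC50 censored at the top concentration.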

In assay [2] the test system is HSC2. The assay is described as above. An outline of the steps: as §1
The subject of assay [3] is S1507-2. Described as above. A digest of the protocol: as §1
In assay [4] the test system is ST8814. The assay is described as above. A digest of the protocol: as §1
Assay [5] deals with STS26T. Described as above. An outline of the steps: as §1
Assay [6] deals with HSC1. Nature of the assay: relative IC50 (inflection point of fitted dose-response curve, CellTiter-Glo viability, 72 h; top asymptote may be below 50% inhibition); higher = less potent. An outline of the steps: (§2)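 For this screen, 384-well plates were preprinted with each compound at five concentrations in 10-fold steps and seeded with MPNST cell lines or primary human Schwann cells at 750–1000 cells per well. Incubation lasted 72 h at 37 °C, 5% CO2, and CellTiter-Glo ATP luminescence, scaled between vehicle and positive-control wells and averaged over duplicates where available, served as viability. Logistic fits with four parameters were applied. Relative IC50 (censored at the top concentration) and drug sensitivity score derive from these fits, and percent inhibition is at the top concentration.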
(ATP-based viability assays read luminescence as a measure of living cells.)

Assay [7] deals with HSC2. The description is as above. An outline of the steps:
as §2

Assay [8] relates to S1507-2. Described as above. An outline of the steps: as §2
Another assay has as its system S462. The description is as above. A digest of the protocol: as §2
The test system of assay [9] is ST8814. The assay is described as above. A digest of the protocol:
as §2

Assay [10] concerns STS26T. The assay is described as above. A digest of the protocol: as §2
Assay [11] has as its system HS-PSS. Description: relative IC50 (inflection point of fitted dose-response curve, CellTox-Green cytotoxicity, 72 h; top asymptote may be below 50%); higher = less potent. A digest of the protocol:
as §1

Assay [12] has as its system HS-PSS. Nature of the assay: relative IC50 (inflection point of fitted dose-response curve, CellTiter-Glo viability, 72 h; top asymptote may be below 50% inhibition); higher = less potent. An outline of the steps: as §2
The subject of the next assay is HS-Sch-2. Described as above. A digest of the protocol:
as §2

A further assay deals with YST-1. The description is as above. An outline of the steps:
as §2

As usually defined, the relative IC50 is the concentration at the midpoint between the plateaus of the fitted inhibition curve. On to `Cc1sc2c(c1C)C(c1ccc(Cl)cc1)=N[C@@H](CC(=O)OC(C)(C)C)c1nnc(C)n1-2` [(+)JQ1], for which the “relative IC50” value was above 10 µM with HSC1 [1]; above 10 µM in the assay with HSC2 [2]; 546 nM with S1507-2 [3]; 404 nM in the assay with ST8814 [4]; above 10 µM in the assay on STS26T [5]; 420 nM with HSC1 [6]. Moreover, the “relative IC50” value in the assay on HSC2 [7] was 462 nM; in the assay with S1507-2 [8] it was 161 nM; in the assay with S462, 386 nM; in the assay with ST8814 [9] it was 208 nM; in the assay on STS26T [10], 226 nM.

`CS(=O)(=O)OCCCCOS(C)(=O)=O` [Busulfan]: the “relative IC50” value with HS-PSS [11] is above 100 µM; in the assay with HSC1 [1] it was above 100 µM; in the assay with HSC2 [2] it was above 100 µM; in the assay with S1507-2 [3], above 100000 nM; in the assay with ST8814 [4] it was above 100000 nM; with STS26T [5] it was above 100 µM. Besides, the “relative IC50” value in the assay with HS-PSS [12], with HSC1 [6], in the assay on HSC2 [7], in the assay with S1507-2 [8], in the assay on S462 and in the assay on ST8814 [9] was above 100000 nM throughout. In addition, in the assay with STS26T [10], the “relative IC50” value was above 100000 nM.

`CC[C@@]1(O)C(=O)OCc2c1cc1n(c2=O)Cc2cc3ccccc3nc2-1` [Camptotechin]: the “relative IC50” value came to 0.0757 µM with HSC1 [1]; 0.136 µM with HSC2 [2]; 244 nM in the assay with S1507-2 [3]; 14.6 nM with ST8814 [4]; 0.126 µM in the assay on STS26T [5]; 47.3 nM in the assay on HSC1 [6]. The “relative IC50” value stood at 40.5 nM in the assay with HSC2 [7]; 100 nM with S1507-2 [8]; 30.2 nM in the assay on S462; 30.7 nM in the assay on ST8814 [9]; 62.8 nM in the assay on STS26T [10].

On to `O=C(O)C1(C(=O)O)CCC1.[NH2-].[NH2-].[Pt+2]` [Carboplatin aq], for which the “relative IC50” value in the assay on HSC1 [1] came out at 27.6 µM; in the assay with HSC2 [2], 20.5 µM; in the assay with S1507-2 [3] it was 37300 nM; with ST8814 [4], 25100 nM; with STS26T [5], 27.3 µM; with HSC1 [6], 14500 nM. Also, the “relative IC50” value in the assay with HSC2 [7] stood at 14600 nM; with S1507-2 [8], 20600 nM; in the assay on S462, 17000 nM; with ST8814 [9], 24400 nM; with STS26T [10], 19500 nM.

Turning to `CCN(CC)CCCC(C)Nc1ccnc2cc(Cl)ccc12` (stereo unspecified) [Chloroquine aq], the “relative IC50” value in the assay on HSC1 [1] is 15.8 µM; in the assay with HSC2 [2], 19.9 µM; in the assay with S1507-2 [3], 3280 nM; in the assay on ST8814 [4], 2820 nM; in the assay with STS26T [5], 3.19 µM; with HSC1 [6], 12300 nM. Besides, the “relative IC50” value was found to be 13100 nM in the assay with HSC2 [7]; 1800 nM in the assay on S1507-2 [8]; 6940 nM in the assay with S462; 3100 nM with ST8814 [9]; 5430 nM with STS26T [10].

For `COC1=C2C[C@@H](C)C[C@H](OC)[C@H](O)[C@@H](C)/C=C(\C)[C@H](OC(N)=O)[C@@H](OC)/C=C\C=C(/C)C(=O)NC(=CC1=O)C2=O` [Geldanamycin], the “relative IC50” value amounted to 0.204 µM with HSC1 [1]; 0.211 µM with HSC2 [2]; 2650 nM in the assay on S1507-2 [3]; 1320 nM with ST8814 [4]; 1.16 µM in the assay on STS26T [5]; 363 nM with HSC1 [6]. The “relative IC50” value in the assay with HSC2 [7] turned out to be 338 nM; in the assay on S1507-2 [8], 1690 nM; in the assay with S462 it was 454 nM; in the assay with ST8814 [9] it was 765 nM; in the assay on STS26T [10] it was 780 nM.

With `COc1cc2c(cc1-c1c(C)noc1C)ncc1[nH]c(=O)n([C@H](C)c3ccccn3)c12` [I-BET151], the “relative IC50” value is above 10 µM in the assay with HS-PSS [11]; above 10 µM in the assay with HSC2 [2]; 1400 nM in the assay with S1507-2 [3]; 1240 nM in the assay on ST8814 [4]; above 10 µM with STS26T [5]; 1710 nM with HS-PSS [12]. In addition, the “relative IC50” value with HS-Sch-2 was 1060 nM; in the assay with HSC1 [6], 992 nM; with HSC2 [7], 1150 nM; in the assay with S1507-2 [8], 1250 nM; in the assay with S462 it was 1310 nM; in the assay with ST8814 [9], 918 nM. Further, the results for the “relative IC50” value with STS26T [10] and with YST-1 were 1130 nM and 1070 nM, respectively.

`C=CC(=O)N1CCC[C@@H](n2nc(-c3ccc(Oc4ccccc4)cc3)c3c(N)ncnc32)C1` [Ibrutinib]: the “relative IC50” value was above 1 µM in the assay on HS-PSS [11]; above 1 µM with HSC1 [1]; above 1 µM with HSC2 [2]; above 1000 nM in the assay with S1507-2 [3]; above 1000 nM in the assay with ST8814 [4]; above 1 µM in the assay with STS26T [5]. Besides, the “relative IC50” value with HS-Sch-2, with HSC1 [6], in the assay with HSC2 [7], with S1507-2 [8], in the assay with S462 and in the assay on ST8814 [9] was above 1000 nM each time. Besides, the “relative IC50” value in the assay on STS26T [10] and with YST-1 was above 1000 nM each time.
